Test results from PubChem BioAssay (NCI).
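Interpolation was linear, between the two tested concentrations surrounding the appropriate level; five concentrations were tested over 48 hours in 96-well plates. At the GI50, growth is halved. TGI: concentration producing complete growth inhibition.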

Legend:
Experiment in all cases: NCI anticancer screen, dose series, 48 h
[1] = system: 786-0 renal
[2] = system: A498 renal
[3] = system: A549 NSCLC
[4] = system: ACHN renal
[5] = system: BT-549 breast
[6] = system: CAKI-1 renal
[7] = system: CCRF-CEM leukemia
[8] = system: COLO 205 colon
[9] = system: DU-145 prostate
[10] = system: EKVX NSCLC
[11] = system: HCC-2998 colon
[12] = system: HCT-116 colon
[13] = system: HCT-15 colon
[14] = system: HL-60(TB) leukemia
[15] = system: HOP-62 NSCLC
[16] = system: HOP-92 NSCLC
[17] = system: HS 578T breast
[18] = system: HT29 colon
[19] = system: IGROV1 ovarian
[20] = system: K-562 leukemia
[21] = system: KM12 colon
[22] = system: LOX IMVI melanoma
[23] = system: MALME-3M melanoma
[24] = system: MCF7 breast
[25] = system: MDA-MB-231 breast
[26] = system: MDA-MB-435
[27] = system: MOLT-4 leukemia
[28] = system: NCI-H226 lung
[29] = system: NCI-H23 lung
[30] = system: NCI-H460 lung
[31] = system: NCI/ADR-RES ovarian
[32] = system: OVCAR-3 ovarian
[33] = system: OVCAR-4 ovarian
[34] = system: OVCAR-5 ovarian
[35] = system: OVCAR-8 ovarian
[36] = system: PC-3 prostate
[37] = system: RXF 393 renal
[38] = system: SF-268 CNS
[39] = system: SF-295 CNS
[40] = system: SF-539 CNS
[41] = system: SK-MEL-2 melanoma
[42] = system: SK-MEL-28 melanoma
[43] = system: SK-MEL-5 melanoma
[44] = system: SK-OV-3 ovarian
[45] = system: SN12C renal
[46] = system: SNB-19 CNS
[47] = system: SNB-75 CNS
[48] = system: SR leukemia
[49] = system: SW-620 colon
[50] = system: T-47D breast
[51] = system: TK-10 renal
[52] = system: U251 CNS
[53] = system: UACC-257 melanoma
[54] = system: UACC-62 melanoma
[55] = system: UO-31 renal
[56] = system: M14 melanoma
[57] = system: NCI-H522 lung
[58] = system: RPMI-8226 leukemia

CN(C)S(=O)(=O)c1ccc(-c2nc(C(Cl)Cl)nc3cc(-c4ccc(F)cc4)nn23)cc1
GI50 [1]: 9.42 µM | TGI [1]: > 100 µM | GI50 [2]: 1.76 µM | TGI [2]: 8.32 µM | GI50 [3]: 1880 nM | TGI [3]: 5.7 µM | GI50 [4]: 925 nM | TGI [4]: 3.61 µM | GI50 [5]: 2290 nM | TGI [5]: 9.99 µM | GI50 [6]: 1530 nM | TGI [6]: 4.71 µM | GI50 [7]: 1870 nM | TGI [7]: > 100 µM | GI50 [8]: 1.62 µM | TGI [8]: 4.23 µM | GI50 [9]: 1590 nM | TGI [9]: 6.27 µM | GI50 [10]: 1940 nM | TGI [10]: 5 µM | GI50 [11]: 1430 nM | TGI [11]: 2.92 µM | GI50 [12]: 986 nM | TGI [12]: 3220 nM | GI50 [13]: 1130 nM | TGI [13]: 5.08 µM | GI50 [14]: 1300 nM | TGI [14]: > 100 µM | GI50 [15]: 2080 nM | TGI [15]: 8.37 µM | GI50 [16]: 1790 nM | TGI [16]: 5.75 µM | GI50 [17]: 2630 nM | TGI [17]: 7.33 µM | GI50 [18]: 0.494 µM | TGI [18]: 2150 nM | GI50 [19]: 1440 nM | TGI [19]: 4.65 µM | GI50 [20]: 929 nM | TGI [20]: > 100 µM | GI50 [21]: 1560 nM | TGI [21]: 4.88 µM | GI50 [22]: 1150 nM | TGI [22]: 6.36 µM | GI50 [23]: 1860 nM | TGI [23]: 4.05 µM | GI50 [24]: 2460 nM | TGI [24]: > 100000 nM | GI50 [25]: 1750 nM | TGI [25]: 6.28 µM | GI50 [26]: 1320 nM | TGI [26]: 3.12 µM | GI50 [27]: 888 nM | TGI [27]: > 100 µM | GI50 [28]: 2770 nM | TGI [28]: 25.6 µM | GI50 [29]: 1450 nM | TGI [29]: 3.4 µM | GI50 [30]: 1680 nM | TGI [30]: 4.32 µM | GI50 [31]: 1010 nM | TGI [31]: 4.66 µM | GI50 [32]: 1670 nM | TGI [32]: 4010 nM | GI50 [33]: 2400 nM | TGI [33]: 8.14 µM | GI50 [34]: 2230 nM | TGI [34]: 7.89 µM | GI50 [35]: 1740 nM | TGI [35]: 7.58 µM | GI50 [36]: 2250 nM | TGI [36]: 8.56 µM | GI50 [37]: 1400 nM | TGI [37]: 3.87 µM | GI50 [38]: 2580 nM | TGI [38]: 11.1 µM | GI50 [39]: 1770 nM | TGI [39]: 6.66 µM | GI50 [40]: 2150 nM | TGI [40]: 7.55 µM | GI50 [41]: 2890 nM | TGI [41]: 9.35 µM | GI50 [42]: 2010 nM | TGI [42]: 5.4 µM | GI50 [43]: 1970 nM | TGI [43]: 4.22 µM | GI50 [44]: 2.15 µM | TGI [44]: 7.79 µM | GI50 [45]: 2180 nM | TGI [45]: 27.7 µM | GI50 [46]: 2280 nM | TGI [46]: 10.9 µM | GI50 [47]: 5.37 µM | TGI [47]: 56.4 µM | GI50 [48]: 320 nM | TGI [48]: > 100 µM | GI50 [49]: 891 nM | TGI [49]: 3.31 µM | GI50 [50]: 3700 nM | TGI [50]: 56.9 µM | GI50 [51]: 3.11 µM | TGI [51]: 13.1 µM | GI50 [52]: 1050 nM | TGI [52]: 2980 nM | GI50 [53]: 3150 nM | TGI [53]: 16.6 µM | GI50 [54]: 1300 nM | TGI [54]: 2.94 µM | GI50 [55]: 2140 nM | TGI [55]: 7.26 µM

Cc1ccc2c(n1)C(=O)C(Cl)=C(Nc1ccc(C)c(C)c1)C2=O
GI50 [2]: 10.6 µM | TGI [2]: 25.3 µM | GI50 [3]: 3370 nM | TGI [3]: 17.3 µM | GI50 [4]: 1680 nM | TGI [4]: 3.13 µM | GI50 [5]: 1410 nM | TGI [5]: 2.79 µM | GI50 [6]: 1590 nM | TGI [6]: 3.16 µM | GI50 [7]: 2460 nM | TGI [7]: 6.72 µM | GI50 [8]: 17.2 µM | TGI [8]: 44.3 µM | GI50 [9]: 1720 nM | TGI [9]: 3.42 µM | GI50 [11]: 2120 nM | TGI [11]: 4.69 µM | GI50 [12]: 1150 nM | TGI [12]: 2640 nM | GI50 [13]: 1120 nM | TGI [13]: 2.88 µM | GI50 [14]: 2270 nM | TGI [14]: 5.7 µM | GI50 [15]: 2490 nM | TGI [15]: 11.2 µM | GI50 [16]: 1980 nM | TGI [16]: 4.1 µM | GI50 [17]: 2260 nM | TGI [17]: 6.47 µM | GI50 [18]: 24.7 µM | TGI [18]: > 100000 nM | GI50 [19]: 1850 nM | TGI [19]: 4.1 µM | GI50 [20]: 2040 nM | TGI [20]: > 100 µM | GI50 [21]: 2960 nM | TGI [21]: > 100 µM | GI50 [22]: 726 nM | TGI [22]: 3.42 µM | GI50 [56]: 1460 nM | TGI [56]: 2960 nM | GI50 [23]: 2130 nM | TGI [23]: 4.22 µM | GI50 [24]: 1010 nM | TGI [24]: 2910 nM | GI50 [25]: 1620 nM | TGI [25]: 3.81 µM | GI50 [26]: 1800 nM | TGI [26]: 3.76 µM | GI50 [27]: 1920 nM | TGI [27]: 6.59 µM | GI50 [28]: 1720 nM | TGI [28]: 5.92 µM | GI50 [29]: 1200 nM | TGI [29]: 3.95 µM | GI50 [30]: 2070 nM | TGI [30]: 12 µM | GI50 [57]: 2000 nM | TGI [57]: 4.9 µM | GI50 [31]: 2210 nM | TGI [31]: 8.26 µM | GI50 [32]: 590 nM | TGI [32]: 1890 nM | GI50 [33]: 1360 nM | TGI [33]: 2.81 µM | GI50 [34]: 2230 nM | TGI [34]: 4.37 µM | GI50 [35]: 2270 nM | TGI [35]: 6.32 µM | GI50 [36]: 1690 nM | TGI [36]: 12.7 µM | GI50 [58]: 1540 nM | TGI [58]: 4.7 µM | GI50 [37]: 1500 nM | TGI [37]: 2.85 µM | GI50 [38]: 2200 nM | TGI [38]: 6.51 µM | GI50 [39]: 1740 nM | TGI [39]: 3.51 µM | GI50 [40]: 1770 nM | TGI [40]: 3.23 µM | GI50 [41]: 2540 nM | TGI [41]: 6.57 µM | GI50 [42]: 2070 nM | TGI [42]: 4.28 µM | GI50 [43]: 1380 nM | TGI [43]: 2.74 µM | GI50 [44]: 22 µM | TGI [44]: > 100 µM | GI50 [45]: 2020 nM | TGI [45]: 5.27 µM | GI50 [46]: 1590 nM | TGI [46]: 4.07 µM | GI50 [47]: 1.73 µM | TGI [47]: 3.87 µM | GI50 [48]: 1530 nM | TGI [48]: 5.75 µM | GI50 [49]: 2070 nM | TGI [49]: 4.51 µM | GI50 [50]: 975 nM | TGI [50]: 3.22 µM | GI50 [51]: 7.48 µM | TGI [51]: 19.7 µM | GI50 [52]: 1480 nM | TGI [52]: 2960 nM | GI50 [53]: 1560 nM | TGI [53]: 2.98 µM | GI50 [54]: 1780 nM | TGI [54]: 4.36 µM | GI50 [55]: 1310 nM | TGI [55]: 2.71 µM
